Values belong to the compound of their own block, whether it stands above or below them.
Legend:
Type in all cases: cell-based
MycN protein = target: T1, MycN protein (Homo sapiens, UniProt P04198); assay: Degradation of MycN protein, Western blot, SKNBE2 cells (Example 160)
T1 construct: either 2×10^6 of L-363 (human leukemia cell line) or SKNBE2 (neuroblastoma cell line) cells; endogenous in cells; host or cells: SKNBE2 / SK-N-BE(2) neuroblastoma cells
T1 sequence (P04198 1-464): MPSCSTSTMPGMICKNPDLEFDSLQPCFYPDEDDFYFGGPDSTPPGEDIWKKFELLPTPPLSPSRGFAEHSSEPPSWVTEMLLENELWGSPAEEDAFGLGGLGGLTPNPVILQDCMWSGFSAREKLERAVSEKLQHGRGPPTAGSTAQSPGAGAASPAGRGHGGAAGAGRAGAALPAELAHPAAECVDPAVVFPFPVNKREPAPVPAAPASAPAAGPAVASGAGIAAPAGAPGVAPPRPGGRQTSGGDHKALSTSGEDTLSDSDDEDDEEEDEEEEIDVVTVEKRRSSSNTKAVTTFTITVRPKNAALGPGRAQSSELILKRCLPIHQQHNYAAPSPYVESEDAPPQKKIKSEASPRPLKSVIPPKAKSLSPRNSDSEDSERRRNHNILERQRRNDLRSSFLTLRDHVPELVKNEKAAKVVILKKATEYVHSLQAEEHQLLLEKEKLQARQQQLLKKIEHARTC
Description: (§1) In a T150 flask was plated either 2×10^6 of L-363 (human leukemia cell line) or SKNBE2 (neuroblastoma cell line) cells in a total of 30 mL containing Roswell Park Memorial Institute (RPMI) 1640 Medium (Thermo Fisher, Cat. #11875-085), 10% Fetal Bovine Serum (FBS, Thermo Fisher: Cat. #10437-028), 1% Penicillin/streptomycin (Thermo Fisher: Cat. #10378016), and 1% Amophotericin B (Thermo Fisher, Cat. #15290026). The cells were split every 72 hours by reseeding the L-363 or SKNBE2 cells, and the passage number was noted. It is noteworthy that cell cultures that were above 40 passages were not used, and most experiments were done with cells of less than 30 passages.
(§2) In a 6-well cell culture plate, a total of 3 mL of either 1×10^6 cells/mL of L-363 or SKNBE2 cells were seeded, resulting in a total of 3×10^6 cells per well. To each well containing 3 mL of either L-363 or SKNBE2 cell line was added 6 uL of MycN modulating compound (1 mM) and the resulting plate was shaken from left to right, and not swirled. After 6 hours, the cells were placed in a 15 mL falcon tube and spun at 500 Gs at 4° C. in a swinging bucket centrifuge. The medium was then carefully removed without disturbing the pellet. The pellet was then washed with 3 mLs of chilled phosphate buffered saline (PBS) and subjected to the spin cycle. PBS was then removed and the pellet was lysed in 200 uL of radioimmunoprecipitation (RIPA) lysis buffer (Thermo Fisher: Cat. #899000) that is supplemented with protease and phosphatase inhibitors (Thermo Fisher: Cat. #A32959). The cell lysate was then subjected to spinning in a centrifuge for 10 minutes at 13000 G at 4° C. The supernatant was then carefully transferred to a fresh eppendorf tube without disturbing the pellet (˜180 uL). The protein concentration of the cell lysate was then determined by using a bicinchoninic acid (BCA assay) according to manufacturer's protocol (Thermo Fisher: Cat. #23227).
(§3) Cell lysate, approximately 25 ug-30 ug, was loaded per well in a 4-20% polyacrylamide gel (Biorad. Cat. #5671094). After running the dye front off of the gel, the gel was transferred to a nitrocellulose membrane (Biorad: Cat. #1704159) using the transblot turbo system (Biorad: Cat. #1704150) according to manufacturer's protocol. After transferring for 30 minutes, the membrane was blocked with 5% BSA for 1 hour at room temperature. The BSA was then washed off and the primary antibody of choice (1:500) was added, and the membrane was incubated with the primary antibody at 4° C. for overnight. The next morning, the primary antibody was removed and the membrane was washed with 1×-TBST for 10 minutes and repeated three more times. Following the last wash, a secondary antibody (Molecular Devices. Cat. #R8209 or R8208) was added at 1:5000 dilution and incubated for 1 hour at room temperature. Following the incubation with the secondary antibody, the membrane was washed with 1×-TBST for 10 minutes and repeated three more times. Following the last wash, the membrane was washed with de-ionized water twice and dried for at least two hours. Once the membrane is completely dry, the Molecular Devices Spectra Max western system was used to observe the bands. The western image was saved and the band density was measured with ImageJ software.

MycC protein = target: T2, MycC protein (Homo sapiens, UniProt P01106); assay: Degradation of MycC protein, Western blot, L-363 cells (Example 160); details: for inhibition at 2 µM: 6 h
T2 construct: either 2×10^6 of L-363 (human leukemia cell line) or SKNBE2 (neuroblastoma cell line) cells; endogenous in cells; host or cells: L-363 / L363 human leukemia cells
Description: as §1, §2, §3

MycC protein (c-myc) = target: T3, MycC protein (c-myc) (Homo sapiens, UniProt P01106); assay: Degradation of MycC protein, 24 h treatment, JESS Western, L363 cells (Example 161); details: L-363 cells
T3 construct: either 2×10^6 of L-363 (human leukemia cell line) cells; endogenous in cells; host or cells: L-363 / L363 human leukemia cells
Description: (§4) For L363 cells (suspension), 1E6 cells were plated into each well of a 6 well plate. For SK-N-BE(2) cells (adherent), 5E5 cells were plated into each well of a 6 well dish. […] All compounds were diluted to 10 mM in DMSO. Cells were treated with the compound for 24 hrs, then for both cell types, media containing cells were removed from wells into a 15 ml centrifuge tube, and remaining adherent SK-N-BE(2) cells were also scraped from the wells into the appropriate tubes. Tubes were centrifuged, cells were washed with PBS then re-centrifuged to pellet cells. A RIPA buffer cocktail was added to the cells on ice for 5 mins. Cell lysates were clarified by centrifugation and stored at −80 degrees until required. BCA assay was performed on each lysate to determine the protein concentration.
(§5) For validation studies of antibodies, lysates and antibodies were used at a number of concentrations (Lysates: 2, 1, 0.2 mg/ml; Antibodies: 1 in 50, 1 in 200 dilution). Once an appropriate lysate concentration and antibody concentration was determined, samples were screened in the JESS technology (Protein Simple, San Jose, CA—https://www.proteinsimple.com/jess.html).
(§6) Target protein antibodies (n-myc and c-myc) were detected in the chemi-luminescence channel and loading controls (tubulin and GAPDH) were detected using a Near Infra Red (NIR) labeled secondary antibody.
(§7) For SK-N-EB2 adherent cells, 5E5 cells in 1.9 mls media were plated into 6 well dishes and incubated for 24 hrs. […] Cells were scrapped off the plate, centrifuged, washed with PBS, centrifuged, then a RIPA buffer cocktail added to the cells (100 ul), centrifuged and stored at −80 for later analysis. For L363 suspension cells, 1E6 cells were plated into […] (950 ul media) and incubated for 24 hrs. […] Cells were aspirated into tubes, centrifuged, washed with PBS, centrifuged, then a RIPA buffer cocktail added to the cells (100 ul), centrifuged and stored at −80 for later analysis.
(§8) For Western blot, a BCA (total protein) assay was run on all samples, these were then run in batches of 5 compounds plus control (DMSO) on each Western blot run—n-myc and c-myc were run in separate experiments in the chemiluminescence channel. Both tubulin and GAPDH were run as loading controls in all lanes in the near infra red channel.

MycN protein (n-myc) = target: T4, MycN protein (n-myc) (Homo sapiens, UniProt P04198); assay: Degradation of MycN protein, 24 h treatment, JESS Western, SK-N-BE(2) cells (Example 161); details: SKNBE2 cells
T4 construct: either 2×10^6 of L-363 (human leukemia cell line) or SKNBE2 (neuroblastoma cell line) cells; endogenous in cells; host or cells: SKNBE2 / SK-N-BE(2) neuroblastoma cells
T4 sequence (P04198 1-464): T1 sequence (P04198 1-464)
Description: as §4, §5, §6, §7, §8

T2 sequence (P01106 whole entry): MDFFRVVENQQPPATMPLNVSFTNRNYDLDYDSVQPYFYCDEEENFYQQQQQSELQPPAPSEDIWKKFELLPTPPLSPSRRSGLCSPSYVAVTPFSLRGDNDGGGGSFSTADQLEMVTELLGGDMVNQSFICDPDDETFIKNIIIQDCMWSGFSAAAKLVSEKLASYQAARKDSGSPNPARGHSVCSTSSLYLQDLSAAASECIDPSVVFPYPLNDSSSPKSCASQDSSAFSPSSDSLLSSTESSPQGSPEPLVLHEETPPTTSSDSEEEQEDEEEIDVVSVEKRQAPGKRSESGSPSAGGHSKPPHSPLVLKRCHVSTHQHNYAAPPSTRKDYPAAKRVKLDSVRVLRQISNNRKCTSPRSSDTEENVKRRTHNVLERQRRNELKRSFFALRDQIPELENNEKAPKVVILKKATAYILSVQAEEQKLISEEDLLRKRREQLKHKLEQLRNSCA
T3 sequence (P01106 whole entry): as above

% Degradation of MycN (SKNBE2) 6 h, 2 μM (MycN protein): * (degradation <20%)
inhibition at 2 µM (MycC protein): 50 to 79%
Compound: CN(c1nccc(Nc2cc(C3CC3)[nH]n2)n1)[C@H]1CC[C@H](NC(=O)C2CCCC(C(F)(F)F)C2)CC1 (stereo partly shown) [113 F1]

% Degradation of MycN (SKNBE2) 6 h, 2 μM (MycN protein): *** (degradation 50-79%)
% Degradation of MycC (L-363) 6 h, 2 μM (MycC protein): *** (degradation 50-79%)
Compound: CN(c1nccc(Nc2cc(C3CC3)[nH]n2)n1)[C@H]1CC[C@H](NC(=O)C2CCCC(C(F)(F)F)C2)CC1 (stereo partly shown) [113 F2]

Compound: CN(c1nccc(Nc2cc(C3CC3)[nH]n2)n1)C1CCN(CC(=O)Nc2cccc(C(F)(F)F)c2)CC1 [Compound 1, 2-(4-((4-((5-cyclopropyl-1H-pyrazol-3-yl)amino)pyrimidin-2-yl)(methyl)amino)piperidin-1-yl)-N-(3-(trifluoromethyl)phenyl)acetamide]
inhibition at 2 µM (MycN protein; 6 h): 50 to 79%
inhibition at 2 µM (MycC protein): 80 to 100%

Compound: CN(c1nccc(Nc2cc(C3CC3)[nH]n2)n1)C1CCN(CC(=O)NC2Cc3ccc(C#N)cc3C2)CC1 (stereo not shown) [Compound 2, N-(5-cyano-2,3-dihydro-1H-inden-2-yl)-2-(4-((4-((5-cyclopropyl-1H-pyrazol-3-yl)amino)pyrimidin-2-yl)(methyl)amino)piperidin-1-yl)acetamide]
inhibition at 2 µM (MycN protein; 6 h): 80 to 100%
inhibition at 2 µM (MycC protein): 80 to 100%

Compound: CN(c1nccc(Nc2cc(C3CC3)[nH]n2)n1)C1CCN(CC(=O)Nc2cccc(S(C)(=O)=O)c2)CC1 [Compound 3, 2-(4-((4-((5-cyclopropyl-1H-pyrazol-3-yl)amino)pyrimidin-2-yl)(methyl)amino)piperidin-1-yl)-N-(3-(methylsulfonyl)phenyl)acetamide]
inhibition at 2 µM (MycN protein; SKNBE2, 6 h): 50 to 79%
inhibition at 2 µM (MycC protein): 80 to 100%

Compound: CN(c1cc(C2CC2)[nH]n1)c1ccnc(N(C)C2CCN(CC(=O)Nc3cccc(C(F)(F)F)c3)CC2)n1 [Compound 4, 2-(4-((4-((5-cyclopropyl-1H-pyrazol-3-yl)(methyl)amino)pyrimidin-2-yl)(methyl)amino)piperidin-1-yl)-N-(3-(trifluoromethyl)phenyl)acetamide]
inhibition at 2 µM (MycN protein; SKNBE2, 6 h): < 20%
inhibition at 2 µM (MycC protein): 20 to 49%

Compound: CS(=O)(=O)c1cccc(NC(=O)CN2CCC(Nc3nccc(Nc4cc(C5CC5)[nH]n4)n3)CC2)c1 [Compound 6, 2-(4-((4-((5-cyclopropyl-1H-pyrazol-3-yl)amino)pyrimidin-2-yl)amino)piperidin-1-yl)-N-(3-(methylsulfonyl)phenyl)acetamide]
inhibition at 2 µM (MycN protein; 6 h): 50 to 79%
inhibition at 2 µM (MycC protein): 80 to 100%

Compound: CN(c1nccc(Nc2cc(C3CC3)[nH]n2)n1)C1CCN(CC(=O)Nc2cn(C)nn2)CC1 [Compound 8, 2-(4-((4-((5-cyclopropyl-1H-pyrazol-3-yl)amino)pyrimidin-2-yl)(methyl)amino)piperidin-1-yl)-N-(1-methyl-1H-1,2,3-triazol-4-yl)acetamide]
inhibition at 2 µM (MycN protein; SKNBE2, 6 h): 50 to 79%
inhibition at 2 µM (MycC protein): 80 to 100%

Compound: CC(C(=O)Nc1cccc(S(C)(=O)=O)c1)N1CCC(N(C)c2nccc(Nc3cc(C4CC4)[nH]n3)n2)CC1 (stereo not shown) [Compound 9]
inhibition at 2 µM (MycN protein; 6 h): 80 to 100%
inhibition at 2 µM (MycC protein): 80 to 100%

Compound: CN(c1nccc(Nc2cc(C3CC3)[nH]n2)n1)C1CCN(CC(=O)Nc2cn(C3COC3)cn2)CC1 [Compound 10, 2-(4-((4-((5-cyclopropyl-1H-pyrazol-3-yl)amino)pyrimidin-2-yl)(methyl)amino)piperidin-1-yl)-N-(1-(oxetan-3-yl)-1H-imidazol-4-yl)acetamide]
inhibition at 2 µM (MycN protein; SKNBE2, 6 h): 50 to 79%
inhibition at 2 µM (MycC protein): 80 to 100%

inhibition at 3 µM (MycC protein (c-myc)): < 20%
inhibition at 6 µM (MycC protein (c-myc)): 80 to 100%
inhibition at 1 µM (MycN protein (n-myc)): < 20%
inhibition at 3 µM (MycN protein (n-myc)): 20 to 49%
inhibition at 6 µM (MycN protein (n-myc)): 50 to 79%
Compound: CN1CCC(Nc2nccc(Nc3cc(C4CC4)[nH]n3)n2)CC1 [Compound 37, N4-(5-Cyclopropyl-1H-pyrazol-3-yl)-N2-(1-methylpiperidin-4-yl)pyrimidine-2,4-diamine]

Compound: CN(c1nccc(Nc2cc(C3CC3)[nH]n2)n1)C1CCN(C2CC2)CC1 [Compound 38, N4-(5-Cyclopropyl-1H-pyrazol-3-yl)-N2-(1-cyclopropylpiperidin-4-yl)-N2-methylpyrimidine-2,4 diamine]
inhibition at 0.5 µM (MycC protein (c-myc)): 50 to 79%
inhibition at 1 µM (MycC protein (c-myc)): 80 to 100%
inhibition at 3 µM (MycC protein (c-myc)): 80 to 100%
inhibition at 6 µM (MycC protein (c-myc)): 80 to 100%
inhibition at 0.5 µM (MycN protein (n-myc)): 20 to 49%
inhibition at 1 µM (MycN protein (n-myc)): 50 to 79%
inhibition at 3 µM (MycN protein (n-myc)): 80 to 100%
inhibition at 6 µM (MycN protein (n-myc)): 80 to 100%

Compound: CN(c1nccc(Nc2cc(C3CC3)[nH]n2)n1)C1CCN(Cc2cccc(S(C)(=O)=O)c2)CC1 [Compound 39, N4-(5-Cyclopropyl-1H-pyrazol-3-yl)-N2-methyl-N2-(1-(3-(methylsulfonyl)benzyl)piperidin-4-yl)pyrimidine-2,4-diamine]
inhibition at 1 µM (MycC protein (c-myc)): 50 to 79%
inhibition at 3 µM (MycC protein (c-myc)): 80 to 100%
inhibition at 6 µM (MycC protein (c-myc)): 80 to 100%
inhibition at 3 µM (MycN protein (n-myc)): 80 to 100%
inhibition at 6 µM (MycN protein (n-myc)): 80 to 100%

Compound: CN(c1nccc(Nc2cc(C3CC3)[nH]n2)n1)C1CCN(Cc2cc(F)cc(F)c2)CC1 [Compound 40, N4-(5-Cyclopropyl-1H-pyrazol-3-yl)-N2-(1-(3,5-difluorobenzyl)piperidin-4-yl)-N2-methylpyrimidine-2,4-diamine]
inhibition at 0.5 µM (MycC protein (c-myc)): < 20%
inhibition at 1 µM (MycC protein (c-myc)): 80 to 100%
inhibition at 3 µM (MycC protein (c-myc)): 80 to 100%
inhibition at 6 µM (MycC protein (c-myc)): 80 to 100%
inhibition at 0.5 µM (MycN protein (n-myc)): < 20%
inhibition at 1 µM (MycN protein (n-myc)): 20 to 49%
inhibition at 3 µM (MycN protein (n-myc)): 80 to 100%
inhibition at 6 µM (MycN protein (n-myc)): 80 to 100%
